Measurements published in patent EP0233206B1, “SUGAR-[…] THEIR PHARMACEUTICAL USE” (priority 1985, dated 1987).

What was measured:
[1] = test system: mäusepathogenen Influenza-Viren; assay type: in vivo, NMRI-Mäusen; details: 20 NMRI mice, 500 µg each injected in 1 % Squalan-in-Wasser-Lösung, all saline controls died
immunkompetenten Zellen = assay: Activity of immunocompetent cells of the treated animals; assay type: in vivo, NMRI-Mäusen; details: cells of the animals treated with 500 µg substance in 1 % Squalan-in-Wasser-Lösung

Question: Which “überlebten (Tiere)” value [1] does the source give for COC(=O)CC[C@@H](NC(=O)CNC(=O)CO[C@@H]1[C@H]2OC(C)(C)O[C@H]2O[C@@H]1[C@H]1COC(C)(C)O1)C(=O)OC [Beispiel 1, N-[ (1,2:5,6-Di-0-isopropyliden-α-D-glucofuranos-30-yl)-acetyl]-glycyl-D-glutaminsäure-dimethylester] here?
Answer: The value was 80%.

Question: What about the “Aktivität der immunkompetenten Zellen” value (immunkompetenten Zellen) of the same compound?
Answer: Its value is “erhöhte Aktivität”.
